What all share (type): in vivo
The subject of data set [1] is Lolium perenne (LOLPE). Nature of the data set: Example B7: pre application on weeds, LOLPE. The settings on record: 312 h, pre-emergence spray one day after sowing, evaluated after 13 days, read-out: Pre application on weeds, LOLPE (100=total damage to plant; 0=no damage to plant). The procedure:
(§1) Lolium perenne (LOLPE), Alopecurus myosuroides (ALOMY), Echinochloa crus-galli (ECHCG) and Avena fatua (AVEFA). Activity Against Weeds Seeds of a variety of test species were sown in standard soil in pots. After cultivation for one day under controlled conditions in a glasshouse (at 24/16° C., day/night; 14 hours light; 65% humidity), the plants were sprayed with an aqueous spray solution derived from the formulation of the technical active ingredient in acetone/water (50:50) solution containing 0.5% Tween 20 (polyoxyethelyene sorbitan monolaurate, CAS RN 9005-64-5). The test plants were then grown in a glasshouse under controlled conditions in a glasshouse (at 24/16° C., day/night; 14 hours light; 65% humidity) and watered twice daily. After 13 days, the test was evaluated (100=total damage to plant; 0=no damage to plant).

In data set [2] the test system is Echinochloa crus-galli (ECHCG). Nature of the data set: Example B7: pre application on weeds, ECHCG. The settings on record: 312 h, pre-emergence spray one day after sowing, evaluated after 13 days, read-out: Pre application on weeds, ECHCG (100=total damage to plant; 0=no damage to plant). The protocol: as §1
The test system of data set [3] is Avena fatua (AVEFA). Nature of the data set: Example B7: pre application on weeds, AVEFA. The following applies: 312 h, pre-emergence spray one day after sowing, evaluated after 13 days, read-out: Pre application on weeds, AVEFA (100=total damage to plant; 0=no damage to plant). The procedure: as §1
Data set [4] deals with Alopecurus myosuroides (ALOMY). Put plainly: Example B6: post application on weeds, ALOMY. The settings on record: 312 h, after 13 days, 100 = total damage, 0 = no damage, read-out: ALOMY damage to plant. The protocol: as §1, with “8 days” for “one day”
The test system of data set [5] is Lolium perenne (LOLPE). Nature of the data set: Example B6: post application on weeds, LOLPE. The settings on record: 312 h, after 13 days, 100 = total damage, 0 = no damage, read-out: LOLPE damage to plant. The protocol: as §1, with “8 days” for “one day”
Data set [6] deals with Avena fatua (AVEFA). Put plainly: Example B6: post application on weeds, AVEFA. The settings on record: 312 h, after 13 days, 100 = total damage, 0 = no damage, read-out: AVEFA damage to plant. The procedure: as §1, with “8 days” for “one day”
The subject of a further data set is Winter wheat (TRZAW). Put plainly: Example B8: post application on wheat, with and without safener cloquintocet-mexyl. The following applies: after 13 days, 100 = total damage, 0 = no damage. The procedure:
Application with Safener (Cloquintocet-Mexyl) Winter wheat seeds with a seed treatment of cloquintocet-mexyl applied at a rate of 0.5 g/kg seeds were sown in standard soil in pots. After cultivation for 8 days under controlled conditions in a glasshouse (at 24/16° C., day/night; 14 hours light; 65% humidity), the plants were sprayed with an aqueous spray solution derived from the formulation of the technical active ingredient in acetone/water (50:50) solution containing 0.5% Tween 20 (polyoxyethelyene sorbitan monolaurate, CAS RN 9005-64-5). The test plants were then grown in a glasshouse under controlled conditions in a glasshouse (at 24/16° C., day/night; 14 hours light; 65% humidity) and watered twice daily. After 13 days, the test was evaluated (100=total damage to plant; 0=no damage to plant).

Data set [7] deals with Alopecurus myosuroides (ALOMY). Nature of the data set: Example B7: pre application on weeds, ALOMY. The following applies: 312 h, pre-emergence spray one day after sowing, evaluated after 13 days, read-out: Pre application on weeds, ALOMY (100=total damage to plant; 0=no damage to plant). The procedure:
as §1

Data set [8] deals with Echinochloa crus-galli (ECHCG). Nature of the data set: Example B6: post application on weeds, ECHCG. The settings on record: 312 h, after 13 days, 100 = total damage, 0 = no damage, read-out: ECHCG damage to plant. The procedure: as §1, with “8 days” for “one day”
Where [9] appears, read: 250 g/ha + 0.5 g/kg seeds cloquintocet-mexyl.

Molecules are shown by their SMILES.

Take `CCOC(=O)Oc1c(-c2c(C)cc(C)cc2OC)c(=O)n2n1CCN(OC)CC2` [Compound P1.9]: the pest or weed control at 250 g/ha amounted to 80% in the data set on Lolium perenne (LOLPE) [1]; 70% in data set [2]; 80% with Avena fatua (AVEFA) [3]; 90% in data set [4]; 90% in the data set with Lolium perenne (LOLPE) [5]; 90% in the data set on Avena fatua (AVEFA) [6]. The figures for the pest or weed control at 250 g/ha in data set [7] and in [8] were 70% and 100%, respectively. The “TRZAW damage to plant” value in the data set with Winter wheat (TRZAW) (setting [9]) is 60; in the data set with Winter wheat (TRZAW) (250 g/ha, without safener) it was 80.
Consider `CCOC(=O)Oc1c(-c2c(C)cc(Br)cc2C)c(=O)n2n1CCN(OC)CC2` [Compound P1.10], for which the pest or weed control at 250 g/ha in the data set with Lolium perenne (LOLPE) [1] came out at 70%; in [2], 60%; with Avena fatua (AVEFA) [3], 40%; in data set [4], 80%; in the data set on Lolium perenne (LOLPE) [5], 70%; with Avena fatua (AVEFA) [6], 70%. The figures for the pest or weed control at 250 g/ha in [7] and in data set [8] were 70% and 60%, respectively. Besides, the “TRZAW damage to plant” value came out at 30 in the data set on Winter wheat (TRZAW) (setting [9]) and 60 in the data set on Winter wheat (TRZAW) (250 g/ha, without safener).
For `CCOC(=O)Oc1c(-c2c(Cl)cc(C)cc2Br)c(=O)n2n1CCN(OC)CC2` [Compound P1.11], the pest or weed control at 250 g/ha in the data set with Lolium perenne (LOLPE) [1] is 90%; in data set [2], 80%; in the data set on Avena fatua (AVEFA) [3], 70%; in [4], 80%; in the data set on Lolium perenne (LOLPE) [5] it was 80%; in the data set with Avena fatua (AVEFA) [6] it was 70%. For the same molecule, the results for the pest or weed control at 250 g/ha in data set [7] and in [8] were 100% and 60%, respectively. Further, the “TRZAW damage to plant” value turned out to be 10 in the data set with Winter wheat (TRZAW) (setting [9]) and 60 in the data set with Winter wheat (TRZAW) (250 g/ha, without safener).
As for `CCOC(=O)Oc1c(-c2c(C)cc(Cl)cc2Br)c(=O)n2n1CCN(OC)CC2` [Compound P1.12], the pest or weed control at 250 g/ha with Lolium perenne (LOLPE) [1] came to 100%; in [2], 0%; with Avena fatua (AVEFA) [3] it was 10%; in data set [4], 80%; in the data set on Lolium perenne (LOLPE) [5] it was 70%; in the data set on Avena fatua (AVEFA) [6] it was 70%. In addition, the pest or weed control at 250 g/ha came out at 90% in [7] and 50% in data set [8]. Also, the “TRZAW damage to plant” value is 30 with Winter wheat (TRZAW) (setting [9]) and 60 with Winter wheat (TRZAW) (250 g/ha, without safener).
In the case of `CON1CCN2C(=O)C(c3c(C)cc(C)cc3C)C(=O)N2CC1` [Compound P2.1, 3-Methoxy-8-(2,4,6-trimethyl-phenyl)-tetrahydro-pyrazolo[1,2-a][1,2,5]triazepine-7,9-dione], the pest or weed control at 250 g/ha with Lolium perenne (LOLPE) [1] is 100%; in data set [2] it was 100%; in the data set with Avena fatua (AVEFA) [3], 90%; in data set [4], 90%; in the data set on Lolium perenne (LOLPE) [5], 90%; in the data set on Avena fatua (AVEFA) [6], 90%. Further, the pest or weed control at 250 g/ha in data set [7] and in data set [8] was 100% in each case. Also, the “TRZAW damage to plant” value was 30 in the data set on Winter wheat (TRZAW) (setting [9]) and 60 in the data set on Winter wheat (TRZAW) (250 g/ha, without safener).
`CON1CCN2C(=O)C(c3c(C)cc(Cl)cc3C)C(=O)N2CC1` [Compound P2.2, 8-(4-Chloro-2,6-dimethyl-phenyl)-3-methoxy-tetrahydro-pyrazolo[1,2-a][1,2,5]triazepine-7,9-dione]: the pest or weed control at 250 g/ha was 80% in the data set with Lolium perenne (LOLPE) [1]; 70% in data set [2]; 50% with Avena fatua (AVEFA) [3]; 70% in data set [4]; 70% in the data set with Lolium perenne (LOLPE) [5]; 50% in the data set on Avena fatua (AVEFA) [6]. Besides, the pest or weed control at 250 g/ha in [7] was 80%; in data set [8] it was 60%. The “TRZAW damage to plant” value with Winter wheat (TRZAW) (setting [9]) turned out to be 20; in the data set on Winter wheat (TRZAW) (250 g/ha, without safener) it was 30.
Turning to `C#Cc1cc(C)cc(C)c1C1C(=O)N2CCN(OC)CCN2C1=O` [Compound P2.5], the pest or weed control at 250 g/ha with Lolium perenne (LOLPE) [1] stood at 100%; in [2], 90%; in the data set with Avena fatua (AVEFA) [3], 100%; in [4] it was 90%; with Lolium perenne (LOLPE) [5] it was 100%; with Avena fatua (AVEFA) [6], 100%. In addition, the pest or weed control at 250 g/ha in data set [7] and in data set [8] was 100% throughout. Also, the “TRZAW damage to plant” value is 10 with Winter wheat (TRZAW) (setting [9]) and 80 in the data set with Winter wheat (TRZAW) (250 g/ha, without safener).
As for `C#Cc1cc(C)c(C2C(=O)N3CCN(OC)CCN3C2=O)c(C)c1` [Compound P2.8], the pest or weed control at 250 g/ha was 60% in the data set on Lolium perenne (LOLPE) [1]; 10% in data set [2]; 10% in the data set with Avena fatua (AVEFA) [3]; 60% in data set [4]; 70% with Lolium perenne (LOLPE) [5]; 40% with Avena fatua (AVEFA) [6]. Moreover, the pest or weed control at 250 g/ha was found to be 80% in [7] and 60% in [8]. For the same molecule, the “TRZAW damage to plant” value in the data set on Winter wheat (TRZAW) (setting [9]) is given as 10; in the data set on Winter wheat (TRZAW) (250 g/ha, without safener), 40.
Consider `CON1CCN2C(=O)C(c3c(C)cc(Br)cc3C)C(=O)N2CC1` [Compound P2.9], for which the pest or weed control at 250 g/ha in the data set with Lolium perenne (LOLPE) [1] is 80%; in [2], 40%; in the data set with Avena fatua (AVEFA) [3] it was 20%; in data set [4] it was 60%; in the data set with Lolium perenne (LOLPE) [5], 70%; with Avena fatua (AVEFA) [6] it was 60%. Further, the pest or weed control at 250 g/ha amounted to 80% in data set [7] and 60% in data set [8]. Moreover, the “TRZAW damage to plant” value turned out to be 20 in the data set with Winter wheat (TRZAW) (setting [9]) and 60 in the data set with Winter wheat (TRZAW) (250 g/ha, without safener).
With `CON1CCN2C(=O)C(c3c(Cl)cc(C)cc3Br)C(=O)N2CC1` [Compound P2.10], the pest or weed control at 250 g/ha amounted to 100% in the data set on Lolium perenne (LOLPE) [1]; 100% in data set [2]; 60% in the data set on Avena fatua (AVEFA) [3]; 80% in data set [4]; 90% with Lolium perenne (LOLPE) [5]; 70% with Avena fatua (AVEFA) [6]. For the same molecule, the pest or weed control at 250 g/ha came to 100% in [7] and 80% in data set [8]. In addition, the “TRZAW damage to plant” value with Winter wheat (TRZAW) (setting [9]) is reported as 20; with Winter wheat (TRZAW) (250 g/ha, without safener), 70.
For the molecule `CON1CCN2C(=O)C(c3c(C)cc(Cl)cc3Br)C(=O)N2CC1` [Compound P2.11], the pest or weed control at 250 g/ha with Lolium perenne (LOLPE) [1] came out at 80%; in [2], 70%; in the data set on Avena fatua (AVEFA) [3], 50%; in [4], 70%; in the data set on Lolium perenne (LOLPE) [5], 70%; with Avena fatua (AVEFA) [6], 60%. Moreover, the figures for the pest or weed control at 250 g/ha in data set [7] and in data set [8] were 80% and 60%, respectively. In addition, the “TRZAW damage to plant” value with Winter wheat (TRZAW) (setting [9]) turned out to be 20; in the data set on Winter wheat (TRZAW) (250 g/ha, without safener) it was 50.

The values are drawn from patent US9282743B2, “Chemical compounds” (Syngenta Participations AG, priority 2011, dated 2016).
